Reference: BindingDB's records for doi:10.1021/acsmedchemlett.0c00203 (University of Texas Md Anderson Cancer Center, 2020)

What was measured:
[1] = Inhibition of ENO1 in overexpressed human D423 cells incubated for 5 days by crystal violet staining based spectrophotometry
[2] = Inhibition of ENO1 in wild-type human LN319 cells incubated for 5 days by crystal violet staining based spectrophotometry
[3] = Inhibition of ENO1 in overexpressed human D423 cells incubated for 5 days in presence of 1 % oxygen by crystal violet staining based spectrophotometry
[4] = Inhibition of ENO1 in wild-type human LN319 cells incubated for 5 days in presence of 21 % oxygen by crystal violet staining based spectrophotometry
[5] = Inhibition of ENO1 in overexpressed human D423 cells incubated for 5 days in presence of 21 % oxygen by crystal violet staining based spectrophotometry
[6] = Inhibition of ENO1 in wild-type human LN319 cells incubated for 5 days in presence of 1 % oxygen by crystal violet staining based spectrophotometry

| Structure (SMILES) | IC50 [1] | IC50 [2] | IC50 [3] | IC50 [4] | IC50 [5] | IC50 [6] |
| --- | --- | --- | --- | --- | --- | --- |
| CC(C)(C)C(=O)OCOP(=O)(NCc1ccccc1)C1CCCN(O)C1=O (configuration not stated) | 3.95 µM | 4.02 µM | – | – | – | – |
| CC(C)(C)C(=O)OCOP(=O)(OCOC(=O)C(C)(C)C)C1CCCN(O)C1=O (configuration not stated) | 0.604 µM | 2.15 µM | 2.81 µM | 2.41 µM | 0.72 µM | 1.81 µM |
| Cn1c(COP(=O)(NCCBr)NCCBr)cnc1[N+](=O)[O-] [Evofosfamide] | – | – | 0.301 µM | 4.84 µM | 2.55 µM | 0.897 µM |
| CC(=O)ON1CCCC(P(=O)(NCc2ccccc2)OCc2ccc([N+](=O)[O-])o2)C1=O (configuration not stated) | – | – | 5.76 µM | 21.1 µM | 25.9 µM | – |
| O=C1C(P(=O)(O)O)CCCN1O (configuration not stated) | > 100 µM | > 100 µM | – | – | – | – |
